Results published in patent US4234691A (Yamasa Shoyu Kabushiki Kaisha, priority 1978, dated 1980).
Like-named read-outs stand apart in the source and are kept apart here.

T1: L-lysine α-oxidase (Trichoderma viride, UniProt A0A0G4DCU0)
T1 construct: mature processed form
T1 sequence (A0A0G4DCU0 77-617): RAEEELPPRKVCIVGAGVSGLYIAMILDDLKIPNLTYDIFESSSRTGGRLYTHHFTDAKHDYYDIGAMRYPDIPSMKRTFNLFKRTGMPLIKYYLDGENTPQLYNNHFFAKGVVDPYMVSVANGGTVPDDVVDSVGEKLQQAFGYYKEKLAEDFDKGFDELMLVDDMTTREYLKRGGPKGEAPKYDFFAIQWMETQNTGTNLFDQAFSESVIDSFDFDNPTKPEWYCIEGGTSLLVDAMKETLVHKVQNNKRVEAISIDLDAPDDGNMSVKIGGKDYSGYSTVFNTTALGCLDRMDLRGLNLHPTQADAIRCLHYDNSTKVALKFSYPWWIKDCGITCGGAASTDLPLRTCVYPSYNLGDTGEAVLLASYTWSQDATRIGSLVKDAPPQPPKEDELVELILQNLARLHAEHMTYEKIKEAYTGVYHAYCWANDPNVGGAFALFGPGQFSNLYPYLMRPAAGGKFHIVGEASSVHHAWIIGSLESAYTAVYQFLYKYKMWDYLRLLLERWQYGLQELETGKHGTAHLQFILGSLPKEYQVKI

B1: L-lysine α-oxidase (Trichoderma viride) (protein)
chain: RAEEELPPRKVCIVGAGVSGLYIAMILDDLKIPNLTYDIFESSSRTGGRLYTHHFTDAKHDYYDIGAMRYPDIPSMKRTFNLFKRTGMPLIKYYLDGENTPQLYNNHFFAKGVVDPYMVSVANGGTVPDDVVDSVGEKLQQAFGYYKEKLAEDFDKGFDELMLVDDMTTREYLKRGGPKGEAPKYDFFAIQWMETQNTGTNLFDQAFSESVIDSFDFDNPTKPEWYCIEGGTSLLVDAMKETLVHKVQNNKRVEAISIDLDAPDDGNMSVKIGGKDYSGYSTVFNTTALGCLDRMDLRGLNLHPTQADAIRCLHYDNSTKVALKFSYPWWIKDCGITCGGAASTDLPLRTCVYPSYNLGDTGEAVLLASYTWSQDATRIGSLVKDAPPQPPKEDELVELILQNLARLHAEHMTYEKIKEAYTGVYHAYCWANDPNVGGAFALFGPGQFSNLYPYLMRPAAGGKFHIVGEASSVHHAWIIGSLESAYTAVYQFLYKYKMWDYLRLLLERWQYGLQELETGKHGTAHLQFILGSLPKEYQVKI
notes: mature processed form

How the values were obtained:
L-lysine α-oxidase [1] = biological target: T1, L-lysine α-oxidase; experiment: Substrate specificity, relative enzyme activity by oxygen-electrode method; format: biochemical; conditions: purified enzyme; for Relative activity (%): substrate 10 mM, L-Lysine = 100
Procedure: A variety of substrates listed in the following table were subjected to the action of the purified enzyme of the present invention, and the relative enzyme activities thereof were determined according to the oxygen-electrode method.
The activity of the present enzyme was measured in accordance with Soda's method (Analytical Biochemistry Vol. 25, p. 228, 1968) in the following manner. A reaction mixture consisting of 0.7 ml of 0.1 M potassium phosphate buffer (pH 8.0), 0.1 ml of catalase (750 U/ml), 0.1 ml of 0.1 M L-lysine solution and 0.1 ml of the present enzyme solution was incubated at 37° C. for 20 minutes with gentle shaking. After the incubation the reaction was terminated by the addition of 0.1 ml of 25% trichloroacetic acid. To the resulting reaction mixture were added 1.9 ml of 1 M acetate buffer (pH 5.0) and 0.8 ml of 0.1% 3-methyl-2-benzothiazolone hydrazone hydrochloride solution. The mixture was further incubated at 30° C. for 30 minutes and then allowed to cool to room temperature, after which measurement of optical density at 318 nm was carried out. The formed α-keto-ε -aminocaproic acid thus formed was determined from the resulting calibration curve. One unit of the enzyme was defined as the quantity of the enzyme catalyzing the formation of 1 μmol of α-keto-ε-aminocaproic acid at 37° C. per minute. The relative activity of the enzyme was also assayed by manometric and polarographic determination of the oxygen consumption.

L-lysine α-oxidase [2] = biological target: T1, L-lysine α-oxidase; experiment: Enzyme activity in the presence of metallic ions and additives (inhibition, activation, stabilization); format: biochemical; conditions: for Relative activity (%) in presence of metallic ions: metallic ions 1mM; for Effect on enzyme activity (in words): enzyme activity measured in presence of the additive
Procedure: The enzyme activity was measured in the presence of various metallic ions and various additives. The activator has not been found. The enzyme was stabilized by sodium chloride, potassium chloride, phosphates and the like.

[3] = test system: L5178 Y mouse leukemic cells; conditions: L5178Y cells, 10^5 cells/ml, 37° C., 48 hours
Procedure: In this experiment, the antitumor activity in vitro was determined by measuring the proliferation-inhibition activity against the cultured L5178 Y mouse leukemic cells. More specifically, 0.1 ml of the sample diluted with a phosphate-buffered saline (PBS) was added to 0.9 ml of the cultured L5178Y cell suspension (10^5 cells/ml) with the logarithmic growth phase. The mixture was incubated, at 37° C. for 48 hours in a carbon dioxide incubator, and then the number of the cells was measured by means of a microcell counter.

[4] = substrate: N[C@@H](Cc1ccccc1)C(=O)O; experiment: Km values of the enzyme for amino acids; format: biochemical, Trichoderma viride; conditions: other: purified enzyme of Example 1
[5] = substrate: NCCCC[C@H](N)C(=O)O; experiment: Km values of the enzyme for amino acids; format: biochemical, Trichoderma viride; conditions: other: purified enzyme of Example 1
[6] = substrate: NCCC[C@H](N)C(=O)O; experiment: purified protein, by the assay type; conditions: other: purified enzyme of Example 1
[7] = inhibitor concentration not given

Row | Molecule | Relative activity (%) (L-lysine α-oxidase [1]) | also measured
1 | NCCCC[C@H](N)C(=O)NO [L-Lysine hydroxamate] | 62.1% | 
2 | NCCC[C@H](N)C(=O)O [L-Ornithine] | 18.2% | Activity of the enzyme to the amino acid (in words) (L-lysine α-oxidase [1]): some activities
3 | CC(N)CSC[C@H](N)C(=O)O (stereo partly drawn) [S-(β-Aminopropyl-L-cysteine] | 34.8% | 
4 | [Mg+2] [Mg] |  | Relative activity (%) in presence of metallic ions (L-lysine α-oxidase [2]): 99.6%
5 | NC(=O)NCCC[C@H](N)C(=O)O [L-Citrulline] | < 0.5% | 
6 | NCCC(N)C(=O)O (centres unmarked) [2,4-Diaminobutyric acid] | < 0.5% | 
7 | NCCSC[C@H](N)C(=O)O [S-(β-Aminoethyl)-L-cysteine] | 9.8% | 
8 | NCCCCCC(=O)O [ε-Aminocaproic acid] | < 0.5% | 
9 | N[C@@H](CCC(=O)N[C@@H](CS)C(=O)NCC(=O)O)C(=O)O [Glutathione] |  | Relative activity (%) in presence of inhibitors (L-lysine α-oxidase [2]): 103.5%
10 | N[C@@H](CCC(=O)O)C(=O)O [L-Glutamic acid] | < 0.5% | 
11 | C[C@@H](O)[C@H](N)C(=O)O [L-Threonine] | < 0.5% | 
12 | N[C@@H](Cc1ccccc1)C(=O)O [L-Phenylalanine] | 8.3% | Activity of the enzyme to the amino acid (in words) (L-lysine α-oxidase [1]): some activities
13 | [Zn+2] [Zn] |  | Relative activity (%) in presence of metallic ions (L-lysine α-oxidase [2]): 92.7%
14 | L-lysine α-oxidase |  | Concentration giving complete inhibition of proliferation [3]: 3.3 mU/ml
15 | N[C@@H](CS)C(=O)O [Cysteine] |  | Relative activity (%) in presence of inhibitors (L-lysine α-oxidase [2]; [7]): 100.3%
16 | [Mn+2] [Mn] |  | Relative activity (%) in presence of metallic ions (L-lysine α-oxidase [2]): 97.1%
17 | O=C(O)c1cc[c]([Hg][Cl])cc1 [PCMB, para-Chloromercuribenzoic acid] |  | Effect on enzyme activity (in words) (L-lysine α-oxidase [2]): inhibited; Relative activity (%) in presence of inhibitors (L-lysine α-oxidase [2]; [7]): 42.9%
18 | NCCCCC(=O)O [δ-Aminovareric acid] | < 0.5% | 
19 | CC[C@H](C)[C@H](N)C(=O)O [L-Isoleucine] | < 0.5% | 
20 | NCCCCCN [Cadaverine] | < 0.5% | 

Row | Molecule | Relative activity (%) (L-lysine α-oxidase [1]) | also measured
21 | CSCC[C@H](N)C(=O)O [L-Methionine] | < 0.5% | 
22 | NCCCC[C@@H](N)C(=O)O [D-Lysine] | < 0.5% | 
23 | [K+] [K] |  | Relative activity (%) in presence of metallic ions (L-lysine α-oxidase [2]): 100.0%
24 | [Cu+2] [Cu] |  | Effect on enzyme activity (in words) (L-lysine α-oxidase [2]): inhibited; Relative activity (%) in presence of metallic ions (L-lysine α-oxidase [2]): 78.5%
25 | NCCCCN [Putrescine] | < 0.5% | 
26 | O=C(O)[C@@H]1CCCN1 [L-Proline] | < 0.5% | 
27 | [Cl][Hg][Cl] [Mercuric chloride] |  | Effect on enzyme activity (in words) (L-lysine α-oxidase [2]): inhibited; Relative activity (%) in presence of inhibitors (L-lysine α-oxidase [2]; [7]): 19.2%
28 | [Ca+2] [Ca] |  | Relative activity (%) in presence of metallic ions (L-lysine α-oxidase [2]): 102.5%
29 | NC(=O)NCCCC[C@H](N)C(=O)O [Homocitrulline] | < 0.5% | 
30 | CC(C)C[C@H](N)C(=O)O [L-Leucine] | < 0.5% | 
31 | [Co+2] [Co] |  | Relative activity (%) in presence of metallic ions (L-lysine α-oxidase [2]): 91.6%
32 | NCC(=O)O [L-Glycine] | < 0.5% | 
33 | NCCCCCC(N)C(=O)O (racemic) [D,L-Homolysine] | 31.1% | 
34 | N=C(N)NCCC[C@H](N)C(=O)O [L-Arginine] | 6.1% | Activity of the enzyme to the amino acid (in words) (L-lysine α-oxidase [1]): some activities
35 | [Cl-].[Na+] [sodium chloride] |  | Stabilization of the enzyme (in words) (L-lysine α-oxidase [2]): stabilized
36 | CC(=O)NCCCC[C@H](N)C(=O)O [ε-N-Acetyl-L-lysine] | < 0.5% | 
37 | O=C(O)[C@@H]1C[C@@H](O)CN1 [L-Hydroxyproline] | < 0.5% | 
38 | CCOC(=O)[C@@H](N)CCCCN [L-Lysine ethyl ester] | 83.3% | 
39 | CCN1C(=O)C=CC1=O [N-Ethylmaleimide] |  | Relative activity (%) in presence of inhibitors (L-lysine α-oxidase [2]; [7]): 108.7%
40 | N[C@@H](Cc1c[nH]c2ccccc12)C(=O)O [L-Tryptophan] | < 0.5% | 

Row | Molecule | Relative activity (%) (L-lysine α-oxidase [1]) | also measured
41 | [Cl-].[K+] [potassium chloride] |  | Stabilization of the enzyme (in words) (L-lysine α-oxidase [2]): stabilized
42 | N[C@@H](CO)C(=O)O [L-Serine] | < 0.5% | 
43 | NCC(N)C(=O)O (stereo not drawn) [α,β-Diaminopropionic acid] | < 0.5% | 
44 | NCCCC[C@H](N)C(=O)O [L-Lysine] | 100.0% | 
45 | NCC(O)CC[C@H](N)C(=O)O (some centres unmarked) [δ-Hydroxy-lysine] | 37.1% | 
46 | [Ba+2] [Ba] |  | Relative activity (%) in presence of metallic ions (L-lysine α-oxidase [2]): 100.0%
47 | O=C(O)CN(CCN(CC(=O)O)CC(=O)O)CC(=O)O [EDTA, Ethylenediaminetetraacetic acid] |  | Relative activity (%) in presence of inhibitors (L-lysine α-oxidase [2]): 93.8%
48 | phosphates |  | Stabilization of the enzyme (in words) (L-lysine α-oxidase [2]): stabilized
49 | N[C@@H](CC(=O)O)C(=O)O [L-Aspartic acid] | < 0.5% | 
50 | NC(=O)C[C@H](N)C(=O)O [L-Asparagine] | < 0.5% | 
51 | O=S(=O)(O)c1cc(O)c(O)c(S(=O)(=O)O)c1 [Tiron] |  | Relative activity (%) in presence of inhibitors (L-lysine α-oxidase [2]; [7]): 96.5%
52 | C[C@H](N)C(=O)O [L-Alanine] | < 0.5% | 
53 | N[C@@H](CSCCc1ccncc1)C(=O)O [S-(β-4-Pyridylethyl)-L-cysteine] | 2.7% | 
54 | N[C@@H](CS)C(=O)O [L-Cysteine] | < 0.5% | 
55 | CC(C)[C@H](N)C(=O)O [L-Valine] | < 0.5% | 
56 | NC(=O)CC[C@H](N)C(=O)O [L-Glutamine] | < 0.5% | 
57 | N[C@@H](Cc1c[nH]cn1)C(=O)O [L-Histidine] | 3.8% | Activity of the enzyme to the amino acid (in words) (L-lysine α-oxidase [1]): some activities
58 | [Li+] [Li] |  | Relative activity (%) in presence of metallic ions (L-lysine α-oxidase [2]): 98.4%
59 | B1 |  | Km [4]: 14000 µM; Km [5]: 40 µM; Km [6]: 440 µM
